Source: patent publication US20240024412A1, “PHARMACEUTICAL COMPOSITION FOR TREATING CDI COMPRISING CLAY MINERAL COMPLEX, AND METHOD FOR PRODUCING SAME” (priority 2020, published 2024)

Test system: C. difficile
Test: mouse acute CDI model using dextran sulfate sodium (DSS), survival rate after oral administration
Type: in vivo
Conditions: for Mouse survival rate (%) according to type of administered drug: 10 mg/kg of vancomycin alone
Method: FIG. 3 is a diagram sequentially illustrating a series of experiments of being treated with dextran sodium sulfate (DSS), being infected with C. difficile, being administered with a bentonite-vancomycin complex, and observing survival rates, in order to produce a mouse acute CDI model. […]
In order to set the mixing ratio of the bentonite-antibiotics complex, vancomycin was orally administered at concentrations of 2, 20, and 200 mg/kg in a mouse acute CDI model using DSS, and the results were shown in Table 2 below and FIG. 5.
In order to confirm a synergistic effect on CDI treatment through the bentonite-antibiotics complex, according to the daily intake, the bentonite was administered at a dose concentration of 50 mg/kg and the vancomycin was administered at a dose concentration of 5 mg/kg, and the survival rates of mice were confirmed as compared to cases of administering 10 mg/kg of vancomycin alone, 50 mg/kg of bentonite alone, and saline alone as control groups thereto.

`CN[C@H](CC(C)C)C(=O)N[C@H]1C(=O)N[C@@H](CC(N)=O)C(=O)N[C@H]2C(=O)N[C@H]3C(=O)N[C@H](C(=O)N[C@H](C(=O)O)c4cc(O)cc(O)c4-c4cc3ccc4O)[C@H](O)c3ccc(c(Cl)c3)Oc3cc2cc(c3O[C@@H]2O[C@H](CO)[C@@H](O)[C@H](O)[C@H]2O[C@H]2C[C@](C)(N)[C@H](O)[C@H](C)O2)Oc2ccc(cc2Cl)[C@H]1O` [Vancomycin, vancomycin] was tested, and the “Mouse survival rate (%) according to type of administered drug” value (D+14) was 1/6 (17%), the “Mouse survival rate (%) according to type of administered drug” value (D-0) was 6/6 (100%) and the “Mouse survival rate (%) according to vancomycin dose” value (vancomycin 2 mg/kg orally, D+14) was “(20%)”. The “Mouse survival rate (%) according to vancomycin dose” value (vancomycin 2 mg/kg orally, D+14, listed as vancomycin) was 20%, the “Mouse survival rate (%) according to vancomycin dose” value (vancomycin 2 mg/kg orally, D-0) was “(100%)” and the “Mouse survival rate (%) according to vancomycin dose” value (vancomycin 20 mg/kg orally, D+14) was 5/5 (100%). For the same compound, the “Mouse survival rate (%) according to vancomycin dose” value (vancomycin 20 mg/kg orally, D+14, listed as vancomycin) was 100%, the “Mouse survival rate (%) according to vancomycin dose” value (vancomycin 20 mg/kg orally, D-0) was 5/5 (100%) and the “Mouse survival rate (%) according to vancomycin dose” value (vancomycin 200 mg/kg orally, D+14) was 5/5 (100%). The “Mouse survival rate (%) according to vancomycin dose” value (vancomycin 200 mg/kg orally, D+14, listed as vancomycin) was 100% and the “Mouse survival rate (%) according to vancomycin dose” value (vancomycin 200 mg/kg orally, D-0) was 5/5 (100%).
